How the values were obtained:
[1] = logD by shake flask method (octanol / PBS pH 7.4, HPLC); format: physicochemical; conditions: octanol / PBS pH 7.4, shake flask
How it was run: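 LogD obtained by HPLC measurement of how the compound distributes between PBS (pH 7.4) and octanol in a shake-flask experiment.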

[2] = molecular target: T1, recombinant human transglutaminase 2 (Homo sapiens, UniProt P21980); test: Transglutaminase assay (DCC-assay): incorporation of dansylcadaverine into dimethylcasein; format: biochemical; conditions: recombinant human TG2 10 nM; dansylcadaverine incorporation into dimethylcasein; read-out: IC50 TG2
T1 construct: purchased Zedira T022
T1 sequence (P21980 1-687): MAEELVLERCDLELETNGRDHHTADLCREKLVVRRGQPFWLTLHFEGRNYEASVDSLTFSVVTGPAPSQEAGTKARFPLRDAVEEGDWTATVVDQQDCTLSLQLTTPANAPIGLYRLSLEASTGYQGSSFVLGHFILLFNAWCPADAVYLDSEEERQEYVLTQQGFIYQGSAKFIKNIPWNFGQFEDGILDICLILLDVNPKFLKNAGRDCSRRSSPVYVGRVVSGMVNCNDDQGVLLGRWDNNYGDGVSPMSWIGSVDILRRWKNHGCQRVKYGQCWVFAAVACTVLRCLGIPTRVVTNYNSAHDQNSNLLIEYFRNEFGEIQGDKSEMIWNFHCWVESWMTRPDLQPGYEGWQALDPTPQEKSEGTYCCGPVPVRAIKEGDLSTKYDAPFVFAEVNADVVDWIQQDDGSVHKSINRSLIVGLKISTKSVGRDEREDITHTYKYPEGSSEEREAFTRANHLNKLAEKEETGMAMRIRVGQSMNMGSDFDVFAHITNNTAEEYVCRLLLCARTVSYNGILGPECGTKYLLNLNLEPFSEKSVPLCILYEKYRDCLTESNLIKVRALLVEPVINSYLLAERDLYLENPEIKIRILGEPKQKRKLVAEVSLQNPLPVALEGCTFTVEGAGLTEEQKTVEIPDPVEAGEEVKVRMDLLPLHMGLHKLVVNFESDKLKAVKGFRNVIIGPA
How it was run: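 IC50 is the inhibitor level that blocks 50% of initial activity. Activity is the fluorescence slope (λex 330, λem 500 nm) between 20 and 30 min of a 37 °C run, relative to a 2% DMSO control. The enzyme is recombinant human tissue transglutaminase, 10 nM final, tested against a 1:2 inhibitor dilution series in a pH 8.0 mix with 10 mM CaCl2, 10 mM glutathione, 16.7 µM dansylcadaverine and 4 µM N,N-dimethylcasein.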

[3] = Caco-2 permeability assay (CacoReady kit); format: in vitro ADME; conditions: human, Caco-2, Caco-2 barrier, CacoReady kit; above 1×10^−6 cm/s classified as permeable
How it was run: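 Caco-2 monolayer barrier, commercial ready-to-use kit, manufacturer protocol. Read-out: Papp.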

Row | SMILES | logD [1] | IC50 [2] [µM] | Papp [3] [×10⁻⁶ cm/s]
1 | CNC(=O)C(=O)CC[C@H](NC(=O)c1snnc1C)C(=O)Nc1cccn(CC(=O)NC2C3CC4CC(C3)CC2C4)c1=O (stereo partly drawn) [II-141, (S)-N1-(1-(2-(2-adamantylamino)-2-oxoethyl)-2-oxo-1,2-dihydropyridin-3-yl)-N6-methyl-2-(4-methyl-1,2,3-thiadiazole-5-carboxamido)-5-oxohexanediamide] | < 1 | 0.04 to 0.4 | < 1
2 | CNC(=O)C(=O)CC[C@H](NC(=O)c1csnn1)C(=O)Nc1cccn(CC(=O)NC23CC(C2)C3)c1=O [II-198, (S)-N1-(1-(2-(bicyclo[1.1.1]pentan-1-ylamino)-2-oxoethyl)-2-oxo-1,2-dihydropyridin-3-yl)-N6-methyl-5-oxo-2-(1,2,3-thiadiazole-4-carboxamido)hexanediamide] | < 1 | 0.04 to 0.4 | < 1
3 | CNC(=O)C(=O)CC[C@H](NC(=O)c1sc(C)nc1C)C(=O)Nc1cccn(CC(=O)NC2C3CC4CC(C3)CC2C4)c1=O (stereo partly drawn) [II-20, (S)-2-(2,4-dimethylthiazole-5-carboxamido)-N1-(1-(2-(2-adamantylamino)-2-oxoethyl)-2-oxo-1,2-dihydropyridin-3-yl)-N6-methyl-5-oxohexanediamide] | 1 to 3 | 0.4 to 2.5 | 1 to 10
4 | CNC(=O)C(=O)CC[C@H](NC(=O)c1nc(Br)cs1)C(=O)Nc1cccn(CC(=O)NC2C3CC4CC(C3)CC2C4)c1=O (stereo partly drawn) [II-39, (S)-2-(4-bromothiazole-2-carboxamido)-N1-(1-(2-(2-adamantylamino)-2-oxoethyl)-2-oxo-1,2-dihydropyridin-3-yl)-N6-methyl-5-oxohexanediamide] | 1 to 3 | 0.04 to 0.4 | 1 to 10
5 | Cc1nnsc1C(=O)N[C@@H](CCC(=O)C(N)=O)C(=O)Nc1cccn(CC(=O)NC2C3CC4CC(C3)CC2C4)c1=O (stereo partly drawn) [II-145, (S)-N1-(1-(2-(2-adamantylamino)-2-oxoethyl)-2-oxo-1,2-dihydropyridin-3-yl)-2-(4-methyl-1,2,3-thiadiazole-5-carboxamido)-5-oxohexanediamide] | < 1 | 0.04 to 0.4 | < 1
6 | CNC(=O)C(=O)CC[C@H](NC(=O)c1cncc(C(=O)O)c1)C(=O)Nc1cccn(CC(=O)NC2C3CC4CC(C3)CC2C4)c1=O (stereo partly drawn) [II-64, (S)-5-(1-(1-(2-(2-adamantylamino)-2-oxoethyl)-2-oxo-1,2-dihydropyridin-3-ylamino)-6-(methylamino)-1,5,6-trioxohexan-2-ylcarbamoyl)nicotinic acid] | 1 to 3 | 0.04 to 0.4 | < 1
7 | Cc1c(C(=O)N[C@@H](CCC(=O)C(=O)NC2CC2)C(=O)Nc2cccn(CC(=O)NC3C4CC5CC(C4)CC3C5)c2=O)oc2ccccc12 (stereo partly drawn) [II-115, (S)-N1-cyclopropyl-N6-(1-(2-(2-adamantylamino)-2-oxoethyl)-2-oxo-1,2-dihydropyridin-3-yl)-5-(3-methylbenzofuran-2-carboxamido)-2-oxohexanediamide] | 3 to 5 | 0.04 to 0.4 | 1 to 10
8 | CNC(=O)C(=O)CC[C@H](NC(=O)c1sc(Br)cc1C)C(=O)Nc1cccn(CC(=O)NC2C3CC4CC(C3)CC2C4)c1=O (stereo partly drawn) [II-21, (S)-2-(5-bromo-3-methylthiophene-2-carboxamido)-N1-(1-(2-(2-adamantylamino)-2-oxoethyl)-2-oxo-1,2-dihydropyridin-3-yl)-N6-methyl-5-oxohexanediamide] | 3 to 5 | < 0.04 | 1 to 10
9 | CNC(=O)C(=O)CC[C@H](NC(=O)c1snnc1CO)C(=O)Nc1cccn(CC(=O)NC2C3CC4CC(C3)CC2C4)c1=O (stereo partly drawn) [II-206, (S)-2-(4-(hydroxymethyl)-1,2,3-thiadiazole-5-carboxamido)-N1-(1-(2-(2-adamantylamino)-2-oxoethyl)-2-oxo-1,2-dihydropyridin-3-yl)-N6-methyl-5-oxohexanediamide] | < 1 | 0.04 to 0.4 | < 1
10 | CNC(=O)C(=O)CC[C@H](NC(=O)c1oc2ccccc2c1C)C(=O)Nc1cccn(CC(=O)NC2C3CC4CC2CC(Br)(C4)C3)c1=O (stereo partly drawn) [II-71, (S)-N1-(1-(2-(5-bromoadamantane-2-amino)-2-oxoethyl)-2-oxo-1,2-dihydropyridin-3-yl)-N6-methyl-2-(3-methylbenzofuran-2-carboxamido)-5-oxohexanediamide] | 1 to 3 | < 0.04 | 1 to 10
11 | CNC(=O)C(=O)CC[C@H](NC(=O)c1cnc(NC(C)=O)s1)C(=O)Nc1cccn(CC(=O)NC23CC(C2)C3)c1=O [II-191, (S)-2-(2-acetamidothiazole-5-carboxamido)-N1-(1-(2-(bicyclo[1.1.1]pentan-1-ylamino)-2-oxoethyl)-2-oxo-1,2-dihydropyridin-3-yl)-N6-methyl-5-oxohexanediamide] | < 1 | 0.4 to 2.5 | < 1
12 | O=C(Cn1cccc(NC(=O)[C@H](CCC(=O)C(=O)NC2CCCC2)NC(=O)c2cnc3ccc(OC(F)(F)F)cc3c2O)c1=O)N[C@@H]1C[C@@H]2CC[C@H]1C2 [II-180, (S)-N1-(1-(2-((1S,2R,4R)-bicyclo[2.2.1]heptan-2-ylamino)-2-oxoethyl)-2-oxo-1,2-dihydropyridin-3-yl)-N6-cyclopentyl-2-(4-hydroxy-6-(trifluoromethoxy)quinoline-3-carboxamido)-5-oxohexanediamide] | 3 to 5 | 0.4 to 2.5 | < 1
13 | CNC(=O)C(=O)CC[C@H](NC(=O)c1cnnn1C)C(=O)Nc1cccn(CC(=O)N[C@@H]2C[C@H]3CC[C@@H]2C3)c1=O [II-130, (2S)-N1-(1-(2-((1R,2R,4S)-bicyclo[2.2.1]heptan-2-ylamino)-2-oxoethyl)-2-oxo-1,2-dihydropyridin-3-yl)-N6-methyl-2-(1-methyl-1H-1,2,3-triazole-5-carboxamido)-5-oxohexanediamide] | < 1 | 0.04 to 0.4 | < 1
14 | CNC(=O)C(=O)CC[C@H](NC(=O)c1cc(Cl)c(Cl)s1)C(=O)Nc1cccn(CC(=O)NC2C3CC4CC(C3)CC2C4)c1=O (stereo partly drawn) [II-49, (S)-2-(4,5-dichlorothiophene-2-carboxamido)-N1-(1-(2-(2-adamantylamino)-2-oxoethyl)-2-oxo-1,2-dihydropyridin-3-yl)-N6-methyl-5-oxohexanediamide] | 3 to 5 | < 0.04 | 1 to 10
15 | CNC(=O)C(=O)CC[C@H](NC(=O)c1oc2ccccc2c1C)C(=O)Nc1cccn(CC(=O)NC2(C#N)C3CC4CC(C3)CC2C4)c1=O (stereo partly drawn) [II-73, (S)-N1-(1-(2-(2-carbonitrileadamantane-2-amino)-2-oxoethyl)-2-oxo-1,2-dihydropyridin-3-yl)-N6-methyl-2-(3-methylbenzofuran-2-carboxamido)-5-oxohexanediamide] | 1 to 3 | 0.04 to 0.4 | < 1
16 | CNC(=O)C(=O)CC[C@H](NC(=O)c1snnc1C)C(=O)Nc1cccn(CC(=O)N[C@@H]2C[C@H]3CC[C@@H]2C3)c1=O [II-152, (S)-N1-(1-(2-((1R,2R,4S)-bicyclo[2.2.1]heptan-2-ylamino)-2-oxoethyl)-2-oxo-1,2-dihydropyridin-3-yl)-N6-methyl-2-(4-methyl-1,2,3-thiadiazole-5-carboxamido)-5-oxohexanediamide] | < 1 | 0.04 to 0.4 | < 1

— patent publication US20240383856A1 (Zedira GmbH, priority 2021, published 2024)
